Source: the NIST ThermoML archive (doi:10.1016/j.jct.2017.02.024)

Assay: mn = molality of the nth substance listed, in mol/kg
Details: 100 kPa, Liquid; for viscosity: Capillary tube (Ostwald / Ubbelohde) method; for mass density: Vibrating tube method

OC[C@@H](O)[C@@H](O[C@H]1O[C@H](CO)[C@@H](O)[C@H](O)[C@H]1O)[C@H](O)[C@@H](O)CO [4-O-α-D-glucopyranosyl-D-glucitol] + O
Details	mass density, m1 = 0.2 [kg/m3]	mass density, m1 = 0.4 [kg/m3]	mass density, m1 = 0.6 [kg/m3]	mass density, m1 = 0.8 [kg/m3]	mass density, m1 = 1 [kg/m3]	viscosity, m1 = 0.2 [mPa·s]	viscosity, m1 = 0.4 [mPa·s]	viscosity, m1 = 0.6 [mPa·s]	viscosity, m1 = 0.8 [mPa·s]	viscosity, m1 = 1 [mPa·s]
293.15 K	1022.97	1045.59	1066.2	1085.31	1102.86	1.202	1.457	1.761	2.142	2.61
303.15 K	1020.13	1042.41	1062.88	1081.69	1099.07	0.95	1.134	1.353	1.626	1.954
313.15 K	1016.42	1038.47	1058.71	1077.36	1094.66	0.77	0.909	1.073	1.277	1.511
323.15 K	1012.07	1033.97	1054.01	1072.55	1089.71	0.641	0.747	0.874	1.027	1.204

O [water] + C[C@H](N)C(=O)O
m2 = 0
Details	mass density [kg/m3]	viscosity [mPa·s]
293.15 K	–	1.002
303.15 K	–	0.798
313.15 K	–	0.654
323.15 K	988.02	0.547

O [water] + NCC(=O)O
m2 = 0
Details	mass density [kg/m3]	viscosity [mPa·s]
293.15 K	–	1.002
303.15 K	–	0.798
313.15 K	–	0.654
323.15 K	988.02	0.547

O [water] + CC(C)[C@H](N)C(=O)O
m2 = 0
Details	mass density [kg/m3]	viscosity [mPa·s]
293.15 K	–	1.002
303.15 K	–	0.798
313.15 K	–	0.654
323.15 K	988.02	0.547

C[C@@H](O)[C@H](N)C(=O)O [L-threonine] + O
Details	mass density, 293.15 K [kg/m3]	mass density, 303.15 K [kg/m3]	mass density, 313.15 K [kg/m3]	mass density, 323.15 K [kg/m3]	viscosity, 293.15 K [mPa·s]	viscosity, 303.15 K [mPa·s]	viscosity, 313.15 K [mPa·s]	viscosity, 323.15 K [mPa·s]
m1 = 0.1	1002.4	999.82	996.36	992.09	1.035	0.823	0.673	0.563
m1 = 0.2	1006.54	1003.91	1000.4	996.09	1.07	0.85	0.694	0.579
m1 = 0.3	1010.59	1007.91	1004.35	1000.01	1.105	0.878	0.717	0.596
m1 = 0.4	1014.57	1011.83	1008.22	1003.85	1.143	0.907	0.739	0.615
m1 = 0.5	1018.46	1015.67	1012.03	1007.62	1.182	0.936	0.763	0.632
m1 = 0.6	1022.28	1019.43	1015.75	1011.32	1.221	0.967	0.787	0.651
m1 = 0.7	1026.03	1023.14	1019.41	1014.96	1.263	0.999	0.811	0.67

O [water] + OC[C@@H](O)[C@@H](O[C@H]1O[C@H](CO)[C@@H](O)[C@H](O)[C@H]1O)[C@H](O)[C@@H](O)CO
m2 = 0
Details	mass density [kg/m3]	viscosity [mPa·s]
293.15 K	–	1.002
303.15 K	–	0.798
313.15 K	–	0.654
323.15 K	988.02	0.547

O [water] + C[C@@H](O)[C@H](N)C(=O)O
m2 = 0
Details	mass density [kg/m3]	viscosity [mPa·s]
293.15 K	–	1.002
303.15 K	–	0.798
313.15 K	–	0.654
323.15 K	988.02	0.547

NCC(=O)O [2-aminoacetic acid] + O
Details	mass density, 293.15 K [kg/m3]	mass density, 303.15 K [kg/m3]	mass density, 313.15 K [kg/m3]	mass density, 323.15 K [kg/m3]	viscosity, 293.15 K [mPa·s]	viscosity, 303.15 K [mPa·s]	viscosity, 313.15 K [mPa·s]	viscosity, 323.15 K [mPa·s]
m1 = 0.1	1001.39	998.81	–	991.09	1.014	0.809	0.663	0.556
m1 = 0.2	1004.56	1001.91	–	994.12	1.027	0.82	0.673	0.565
m1 = 0.3	1007.67	1004.97	1001.42	997.11	1.041	0.832	0.683	0.574
m1 = 0.4	1010.73	1007.98	1004.4	1000.05	1.055	0.844	0.693	0.582
m1 = 0.5	1013.74	1010.94	1007.32	1002.96	1.07	0.856	0.704	0.591
m1 = 0.6	1016.72	1013.87	1010.23	1005.85	1.085	0.868	0.714	0.6
m1 = 0.7	1019.66	1016.75	1013.06	1008.69	1.101	0.881	0.724	0.61
